Experimental findings from US20260028344A1, “CRYSTALLINE FORMS OF LANRAPLENIB AND METHODS OF MAKING AND USING THE SAME” (Kronos Bio, Inc., priority 2022, published 2026) are described below.

A short description of this series: Solubility / biopharmaceutical classification (BCS) of lanraplenib. The series is classed as physicochemical. The settings on record: in physiological conditions.

As to `Nc1cncc(-c2cn3ccnc3c(Nc3ccc(N4CCN(C5COC5)CC4)cc3)n2)n1` [Lanraplenib], the solubility result is reported as “low”.
